Target: T1, aldosterone receptor (Rattus norvegicus, UniProt P22199)
T1 construct: centrifuged at 105,000 g for 30 minutes, and then a supernatant was collected as a renal soluble fraction; from tissue; host or cells: rat kidney (adrenalectomized rat), 105,000 g supernatant (cytosol)
T1 sequence (P22199 1-981): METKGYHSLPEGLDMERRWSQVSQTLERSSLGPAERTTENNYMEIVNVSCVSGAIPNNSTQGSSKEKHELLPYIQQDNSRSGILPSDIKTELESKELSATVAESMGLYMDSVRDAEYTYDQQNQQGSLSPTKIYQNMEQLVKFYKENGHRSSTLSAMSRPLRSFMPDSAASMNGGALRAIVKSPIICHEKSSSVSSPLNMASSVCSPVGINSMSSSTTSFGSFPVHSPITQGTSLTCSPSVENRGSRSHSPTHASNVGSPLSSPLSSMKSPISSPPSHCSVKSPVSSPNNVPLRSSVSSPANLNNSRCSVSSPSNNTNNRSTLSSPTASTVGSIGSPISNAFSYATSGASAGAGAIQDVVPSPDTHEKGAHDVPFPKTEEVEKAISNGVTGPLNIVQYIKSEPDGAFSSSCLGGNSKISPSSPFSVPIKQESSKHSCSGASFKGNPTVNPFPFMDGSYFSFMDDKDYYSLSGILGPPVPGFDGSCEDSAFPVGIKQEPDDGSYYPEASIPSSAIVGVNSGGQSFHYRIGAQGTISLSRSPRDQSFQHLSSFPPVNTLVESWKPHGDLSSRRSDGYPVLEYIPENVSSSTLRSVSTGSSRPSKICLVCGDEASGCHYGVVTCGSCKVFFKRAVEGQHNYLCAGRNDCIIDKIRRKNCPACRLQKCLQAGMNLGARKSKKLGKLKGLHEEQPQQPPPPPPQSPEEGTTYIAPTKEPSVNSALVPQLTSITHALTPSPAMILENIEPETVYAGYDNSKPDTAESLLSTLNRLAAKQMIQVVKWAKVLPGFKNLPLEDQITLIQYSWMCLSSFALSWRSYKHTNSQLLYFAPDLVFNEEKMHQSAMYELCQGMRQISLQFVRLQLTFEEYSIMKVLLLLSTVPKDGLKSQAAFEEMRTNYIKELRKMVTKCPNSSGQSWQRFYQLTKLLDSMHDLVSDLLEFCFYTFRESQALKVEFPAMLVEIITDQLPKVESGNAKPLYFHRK
Experiment: Binding inhibition test for aldosterone receptor ([3H]aldosterone, rat renal soluble fraction)
Conditions: for IC50: [3H]aldosterone 2 nM, rat renal soluble fraction, in the presence of 2 μM RU-486, 4° C. about 18 hours, read-out: MR IC50; for inhibition at 100 µM: read-out: Inhibition rates (%) in 100 μM
Protocol: Binding Inhibition Test for Aldosterone Receptor
A rat was layed open in flank regions (on both sides) to remove both adrenal glands. After stitching up the incision, the rat was returnd to a breeding cage again. After removing the kidney from the rat reared for about 3 to 5 days, the kidney was homogenized in 0.1 M Tris-HCl, 0.25M sucrose, 0.1M Na2MoO4 and 2 mM DTT buffer solution (pH7.4). The resultant was centrifuged at 105,000 g for 30 minutes, and then a supernatant was collected as a renal soluble fraction.
The rat renal soluble fraction (0.5 to 1.5 mg), a labeled ligand [^3H] aldosterone (2 nM) and a test article were reacted in the presence of 2 μM RU-486 (glucocorticoid receptor antagonist) in 100 μL of total amounts at 4° C. for about 18 hours. Afterwards, to the reaction solution was added 50 μL of 5% dextran-coated activated charcoal, and the mixture was immingled, and then centrifuged at 3,000 g for 5 minutes. Then, a supernatant (100 μL) was collected and mixed with a liquid scintillator ACS-II (Amersham) (3.5 mL), and then analyzed its radioactivity by a liquid scintillation counter (manufactured by Packard, Tri Carb 2700TR). A non-specific binding was obtained by addition of 2 μM aldosterone to a reaction solution. […]
Binding inhibition rate (%)=100−{(B−N)/(B0−N)}×100
B: labeled ligand binding amounts in the presence of a test article and a labeled ligand
B0: labeled ligand binding amounts in the absence of a test article
N: labeled ligand binding amounts in the presence of excess aldosterone (2 μM)
Test example 1 was carried out for compounds obtained in the Examples.

| IC50 [nM] | inhibition at 100 µM [%] | Structure (SMILES) |
| --- | --- | --- |
| 450 |  | COc1cc(C(=O)Nc2ccc(-c3ccccc3C(F)(F)F)c(CN3CCC(F)CC3)c2)ccc1S(N)(=O)=O [Example 392] |
| 180 |  | COc1cc(NC(=O)c2ccc(-c3ccccc3OC(F)(F)F)c(CN3CCC(F)(F)CC3)c2)ccc1S(N)(=O)=O [Example 286] |
| < 1000 |  | COc1cc(NC(=O)c2ccc(-c3ccccc3-c3cccs3)cc2)ccc1S(N)(=O)=O [Example 42] |
| 520 |  | COc1cc(C(=O)Nc2ccc(-c3ccccc3C(F)(F)F)c(COC3CCOCC3)c2)ccc1S(N)(=O)=O [Example 410] |
| 190 |  | COc1cc(C(=O)Nc2ccc(-c3ccccc3C(F)(F)F)c(CN3CCC4(C3)OCCO4)c2)ccc1S(N)(=O)=O [Example 395] |
| 470 |  | Cn1ccc(CNCc2cc(C(=O)Nc3ccc(S(C)(=O)=O)cc3)ccc2-c2ccccc2OC(F)(F)F)n1 [Example 153] |
| 540 |  | COc1cc(NC(=O)c2ccc(-c3ccccc3C(F)(F)F)c(CNC(C)C)c2)ccc1S(N)(=O)=O [Example 85] |
| 470 |  | COc1cc(C(=O)Nc2ccc(-c3ccccc3N3CCCCC3)c(C)c2)ccc1S(N)(=O)=O [Example 342] |
| 380 |  | COc1cc(C(=O)Nc2ccc(-c3ccccc3C(F)(F)F)c(CN3CC[C@H](F)C3)c2)ccc1S(N)(=O)=O [Example 376] |
| 240 |  | COc1cc(NC(=O)c2ccc(-c3ccccc3OC(F)(F)F)c(N)c2)ccc1S(N)(=O)=O [Example 560] |
| 61 |  | COc1cc(NC(=O)c2ccc(-c3ccccc3OC(F)(F)F)c(CN3CC(C)OC(C)C3)c2)ccc1S(N)(=O)=O (stereo not drawn) [Example 302] |
| < 10000 |  | COc1ccc(-c2ccc(C(=O)Nc3ccc(S(N)(=O)=O)c(OC)c3)cc2CNCC(F)F)c(C)c1 [Example 592] |
| 630 |  | COc1cc(C(=O)Nc2ccc(-c3ccccc3C(F)(F)F)c(CN3CC(F)(F)C3)c2)ccc1S(N)(=O)=O [Example 385] |
| < 10000 |  | CS(=O)(=O)c1ccc(NC(=O)c2ccc(-c3ccccc3OC(F)(F)F)c(CNCC3CCCCC3)c2)cc1 [Example 221] |
| 150 |  | COc1cc(NC(=O)c2ccc(-c3ccccc3OC(F)(F)F)c(CN3CCCOCC3)c2)ccc1S(N)(=O)=O [Example 303] |
| > 10000 | 7 | COc1cccc(NC(=O)c2ccc(-c3ccccc3)c(CN3CCCCC3)c2)c1 [compound 1] |
| 420 |  | COc1cc(C(=O)Nc2ccc(-c3ccc(O)cc3C(F)(F)F)c(CO)c2)ccc1S(N)(=O)=O [Example 315] |
| 220 |  | COc1cc(NC(=O)c2ccc(-c3ccc(F)cc3C(F)(F)F)c(CO)c2)ccc1S(N)(=O)=O [Example 127] |
| 680 |  | COc1cc(NC(=O)c2ccc(-c3ccccc3C(F)(F)F)c(C(O)C(F)(F)F)c2)ccc1S(N)(=O)=O (stereo not drawn) [Example 244] |
| < 10000 |  | CCOc1ncccc1-c1ccc(C(=O)Nc2ccc(S(N)(=O)=O)c(OC)c2)cc1CNCC(F)F [Example 463] |
| 140 |  | COc1cc(C(=O)Nc2ccc(-c3ccccc3N3C[C@@H](C)O[C@@H](C)C3)c(C)c2)ccc1S(N)(=O)=O [Example 345] |
| 280 |  | CS(=O)(=O)c1ccc(NC(=O)c2ccc(-c3ccccc3OC(F)(F)F)c(CN3CC[C@@H](F)C3)c2)cc1 [Example 510] |
| < 100 |  | CS(=O)(=O)c1ccc(NC(=O)c2ccc(-c3ccccc3OC(F)(F)F)c(CN[C@@H]3CCCc4ccccc43)c2)cc1 [Example 229] |
| < 10000 |  | COc1cc(NC(=O)c2ccc(-c3ccc(C)cc3C(F)(F)F)c(CNCC(F)F)c2)ccc1S(N)(=O)=O [Example 440] |
| 440 |  | COc1cc(NC(=O)c2ccc(-c3ccccc3OC(F)(F)C(F)F)c(CO)c2)ccc1S(N)(=O)=O [Example 260] |
| < 10000 |  | CN(Cc1ccc(F)cc1)Cc1cc(C(=O)Nc2ccc(S(C)(=O)=O)cc2)ccc1-c1ccccc1OC(F)(F)F [Example 231] |

| IC50 [nM] | inhibition at 100 µM [%] | Structure (SMILES) |
| --- | --- | --- |
| 350 |  | COc1cc(C(=O)Nc2ccc(-c3ccccc3OC(F)(F)F)c(CCO)c2)ccc1S(N)(=O)=O [Example 335] |
| 250 |  | COc1cc(C(=O)Nc2ccc(-c3ccccc3C(F)(F)F)c(CO)c2)ccc1S(N)(=O)=O [Example 323-2] |
| 360 |  | COc1cc(NC(=O)c2ccc(-c3ccccc3OC(F)(F)F)c(CNC3CCC3)c2)ccc1S(N)(=O)=O [Example 289] |
| 1100 |  | COc1cc(C(=O)Nc2ccc(-c3ccccc3NC3CCCC3)c(C)c2)ccc1S(N)(=O)=O [Example 346] |
| 260 |  | COc1cc(C(=O)Nc2ccc(S(N)(=O)=O)c(OC)c2)ccc1-c1ccccc1C(F)(F)F [Example 59] |
| < 10000 |  | COc1cc(NC(=O)c2ccc(-c3ccc(C(F)(F)F)cc3Cl)c(CNCC(F)F)c2)ccc1S(N)(=O)=O [Example 460] |
| 4700 |  | COc1cc(NC(=O)c2ccc(-c3ccccc3C)cc2)ccc1S(N)(=O)=O [Example 14] |
| 750 |  | COc1cc(C(=O)Nc2ccc(-c3ccccc3C(F)(F)F)c(CC#N)c2)ccc1S(N)(=O)=O [Example 363] |
| 500 |  | COc1cc(NC(=O)c2ccc(-c3ccccc3C(F)(F)F)cc2)ccc1S(N)(=O)=O [Example 10] |
| 880 |  | COc1cc(NC(=O)c2ccc(-c3ccccc3C(F)(F)F)c(CN3CCCC3)c2)ccc1S(N)(=O)=O [Example 75] |
| 700 |  | CS(=O)(=O)c1ccc(NC(=O)c2ccc(-c3ccccc3OC(F)(F)F)c(CNC3CC3)c2)cc1 [Example 513] |
| 200 |  | CNS(=O)(=O)c1ccc(NC(=O)c2ccc(-c3ccccc3C(F)(F)F)cc2)cc1OC [Example 51] |
| 2500 |  | COc1cc(C(=O)Nc2ccc(-c3ccc(OCCO)cc3C(F)(F)F)c(CO)c2)ccc1S(N)(=O)=O [Example 320] |
| 450 |  | COc1cc(C(=O)Nc2ccc(-c3ccccc3C(F)(F)F)c(CN3CC(C)OC(C)C3)c2)ccc1S(N)(=O)=O (stereo not drawn) [Example 371] |
| 350 |  | COc1cc(NC(=O)c2ccc(-c3ccccc3C(F)(F)F)c(C)c2)ccc1S(N)(=O)=O [Example 7] |
| < 10000 |  | CS(=O)(=O)c1ccc(NC(=O)c2ccc(-c3ccccc3OC(F)(F)F)c(CN3CC(F)(F)C3)c2)cc1 [Example 171] |
| 84 |  | COc1cc(NC(=O)c2ccc(-c3ccccc3-c3cccs3)c(CO)c2)ccc1S(N)(=O)=O [Example 257] |
| 390 |  | CS(=O)(=O)c1ccc(NC(=O)c2ccc(-c3ccccc3OC(F)(F)F)c(CNCC(F)F)c2)cc1 [Example 176] |
| 130 |  | COCCNCc1cc(NC(=O)c2ccc(S(N)(=O)=O)c(OC)c2)ccc1-c1ccccc1C(F)(F)F [Example 357] |
| 1600 |  | COc1cc(NC(=O)c2ccc(-c3ccccc3CN3CCOCC3)cc2)ccc1S(N)(=O)=O [Example 22] |
| > 10000 | 11 | NS(=O)(=O)c1cccc(NC(=O)c2ccc(-c3ccccc3)c(CN3CCCCC3)c2)c1 [compound 2] |
| 360 |  | COc1cc(C(=O)Nc2ccc(-c3ccccc3C(F)(F)F)c(CN3CCSCC3)c2)ccc1S(N)(=O)=O [Example 387] |
| 280 |  | COc1cc(C(=O)Nc2ccc(-c3ccccc3C(F)(F)F)c(COCCCO)c2)ccc1S(N)(=O)=O [Example 333] |
| 360 |  | CCN(CC)c1cc(C(=O)Nc2ccc(S(N)(=O)=O)cc2)ccc1-c1ccccc1OC(F)(F)F [Example 265] |
| < 10000 |  | COc1cc(NC(=O)c2ccc(-c3ccc(F)cc3C(F)(F)F)c(CNCC(F)F)c2)ccc1S(N)(=O)=O [Example 486] |
| 170 |  | CCNc1cc(C(=O)Nc2ccc(S(N)(=O)=O)c(OC)c2)ccc1-c1ccccc1C(F)(F)F [Example 131] |

Reference: patent US20130116227A1, “BIARYL AMIDE DERIVATIVE OR PHARMACEUTICALLY ACCEPTABLE SALT THEREOF” (DAINIPPON SUMITOMO PHARMA CO., LTD., priority 2010, published 2013)
